Activity calls are given as the source filed them. How the calls were made is not given here.
Test system: CCRIS mutagenicity, Ames/micronucleus/aberration tests
Assay: CCRIS mutagenicity studies
[1] = Test System: AMES SALMONELLA TYPHIMURIUM, Strain/Indicator: TA98, Metabolic Activation: S-9, Method: STANDARD PLATE
[2] = Test System: AMES SALMONELLA TYPHIMURIUM, Strain/Indicator: TA100, Metabolic Activation: NONE, Method: STANDARD PLATE
[3] = Test System: AMES SALMONELLA TYPHIMURIUM, Strain/Indicator: TA100, Metabolic Activation: S-9, Method: STANDARD PLATE
[4] = Test System: AMES SALMONELLA TYPHIMURIUM, Strain/Indicator: TA98, Metabolic Activation: NONE, Method: STANDARD PLATE
[5] = Test System: AMES SALMONELLA TYPHIMURIUM, Strain/Indicator: TA1535, Metabolic Activation: NONE, Method: STANDARD PLATE
[6] = Test System: AMES SALMONELLA TYPHIMURIUM, Strain/Indicator: TA1537, Metabolic Activation: NONE, Method: STANDARD PLATE

Compound: COc1cc(Oc2ccc(Cl)cc2Cl)ccc1[N+](=O)[O-]
- mutagenic call [1]: inactive; negative
- mutagenic call [2]: active; positive
- mutagenic call [3]: inactive; negative
- mutagenic call (Test System: AMES SALMONELLA TYPHIMURIUM, Strain/Indicator: TA100, Metabolic Activation: S-9 MIX, Method: STANDARD PLATE): inactive; negative
- mutagenic call (Test System: AMES SALMONELLA TYPHIMURIUM, Strain/Indicator: YG1021, Metabolic Activation: NONE, Method: PREINCUBATION): active; positive
- mutagenic call (Test System: AMES SALMONELLA TYPHIMURIUM, Strain/Indicator: YG1021, Metabolic Activation: RAT, LIVER, S-9, PCB, Method: PREINCUBATION): active; positive
- mutagenic call (Test System: AMES SALMONELLA TYPHIMURIUM, Strain/Indicator: YG1021, Metabolic Activation: S-9, Method: STANDARD PLATE): inactive; negative
- mutagenic call (Test System: AMES SALMONELLA TYPHIMURIUM, Strain/Indicator: YG1024, Metabolic Activation: S-9, Method: STANDARD PLATE): inactive; negative
- mutagenic call (Test System: AMES SALMONELLA TYPHIMURIUM, Strain/Indicator: YG1026, Metabolic Activation: NONE, Method: PREINCUBATION): active; positive
- mutagenic call (Test System: AMES SALMONELLA TYPHIMURIUM, Strain/Indicator: YG1026, Metabolic Activation: RAT, LIVER, S-9, PCB, Method: PREINCUBATION): active; positive
- mutagenic call (Test System: AMES SALMONELLA TYPHIMURIUM, Strain/Indicator: YG1026, Metabolic Activation: S-9, Method: STANDARD PLATE): inactive; negative
- mutagenic call (Test System: AMES SALMONELLA TYPHIMURIUM, Strain/Indicator: YG1029, Metabolic Activation: S-9, Method: STANDARD PLATE): inactive; negative

Compound: CC(=O)CC(=O)Nc1ccc(C)cc1
- mutagenic call (Test System: AMES SALMONELLA TYPHIMURIUM, Strain/Indicator: TA98, Metabolic Activation: NONE, Method: PREINCUBATION): inactive; negative
- mutagenic call (Test System: AMES SALMONELLA TYPHIMURIUM, Strain/Indicator: TA98, Metabolic Activation: RAT, LIVER, S-9, PHENOBARBITAL AND BETA-NAPHTHOFLAVONE, Method: PREINCUBATION): inactive; negative
- mutagenic call (Test System: AMES SALMONELLA TYPHIMURIUM, Strain/Indicator: TA100, Metabolic Activation: NONE, Method: PREINCUBATION): inactive; negative
- mutagenic call (Test System: AMES SALMONELLA TYPHIMURIUM, Strain/Indicator: TA100, Metabolic Activation: RAT, LIVER, S-9, PHENOBARBITAL AND BETA-NAPHTHOFLAVONE, Method: PREINCUBATION): inactive; negative
- mutagenic call (Test System: AMES SALMONELLA TYPHIMURIUM, Strain/Indicator: TA102, Metabolic Activation: NONE, Method: PREINCUBATION): inactive; negative
- mutagenic call (Test System: AMES SALMONELLA TYPHIMURIUM, Strain/Indicator: TA102, Metabolic Activation: NONE, Method: STANDARD PLATE): inactive; negative
- mutagenic call (Test System: AMES SALMONELLA TYPHIMURIUM, Strain/Indicator: TA102, Metabolic Activation: RAT, LIVER, S-9, PHENOBARBITAL AND BETA-NAPHTHOFLAVONE, Method: PREINCUBATION): inactive; negative
- mutagenic call (Test System: AMES SALMONELLA TYPHIMURIUM, Strain/Indicator: TA104, Metabolic Activation: NONE, Method: PREINCUBATION): inactive; negative
- mutagenic call (Test System: AMES SALMONELLA TYPHIMURIUM, Strain/Indicator: TA104, Metabolic Activation: RAT, LIVER, S-9, PHENOBARBITAL AND BETA-NAPHTHOFLAVONE, Method: PREINCUBATION): inactive; negative
- mutagenic call (Test System: AMES SALMONELLA TYPHIMURIUM, Strain/Indicator: TA1535, Metabolic Activation: NONE, Method: PREINCUBATION): inactive; negative
- mutagenic call (Test System: AMES SALMONELLA TYPHIMURIUM, Strain/Indicator: TA1535, Metabolic Activation: RAT, LIVER, S-9, PHENOBARBITAL AND BETA-NAPHTHOFLAVONE, Method: PREINCUBATION): inactive; negative
- mutagenic call (Test System: AMES SALMONELLA TYPHIMURIUM, Strain/Indicator: TA1537, Metabolic Activation: NONE, Method: PREINCUBATION): inactive; negative
- mutagenic call (Test System: AMES SALMONELLA TYPHIMURIUM, Strain/Indicator: TA1537, Metabolic Activation: RAT, LIVER, S-9, PHENOBARBITAL AND BETA-NAPHTHOFLAVONE, Method: PREINCUBATION): inactive; negative
- mutagenic call (Test System: AMES SALMONELLA TYPHIMURIUM, Strain/Indicator: TA2638, Metabolic Activation: NONE, Method: STANDARD PLATE): inactive; negative
- mutagenic call (Test System: E. COLI, Strain/Indicator: WP2 (PKM101), Metabolic Activation: NONE, Method: STANDARD PLATE): inactive; negative
- mutagenic call (Test System: E. COLI, Strain/Indicator: WP2 UVRA (PKM101), Metabolic Activation: NONE, Method: STANDARD PLATE): inactive; negative
- mutagenic call (Test System: E. COLI, Strain/Indicator: WP2UVRA/PKM101, Metabolic Activation: NONE, Method: PREINCUBATION): active; positive
- mutagenic call (Test System: E. COLI, Strain/Indicator: WP2UVRA, Metabolic Activation: NONE, Method: PREINCUBATION): inactive; negative
- mutagenic call (Test System: E. COLI, Strain/Indicator: WP2UVRA, Metabolic Activation: RAT, LIVER, S-9, PHENOBARBITAL AND BETA-NAPHTHOFLAVONE, Method: PREINCUBATION): inactive; negative

Compound: C[C@H]1CCC[C@H](O)CCCCCc2cc(O)cc(O)c2C(=O)O1
- mutagenic call [4]: inactive; negative
- mutagenic call (Test System: AMES SALMONELLA TYPHIMURIUM, Strain/Indicator: TA98, Metabolic Activation: RAT, LIVER, S-9, Method: STANDARD PLATE): inactive; negative
- mutagenic call [2]: inactive; negative; toxicity at 1000 ug/plate
- mutagenic call (Test System: AMES SALMONELLA TYPHIMURIUM, Strain/Indicator: TA100, Metabolic Activation: RAT, LIVER, S-9, Method: STANDARD PLATE): inactive; negative
- mutagenic call [5]: inactive; negative
- mutagenic call (Test System: AMES SALMONELLA TYPHIMURIUM, Strain/Indicator: TA1535, Metabolic Activation: RAT, LIVER, S-9, Method: STANDARD PLATE): inactive; negative
- mutagenic call [6]: inactive; negative; toxicity at 1000 ug/plate
- mutagenic call (Test System: AMES SALMONELLA TYPHIMURIUM, Strain/Indicator: TA1537, Metabolic Activation: RAT, LIVER, S-9, Method: STANDARD PLATE): inactive; negative; toxicity at 1000 ug/plate
- mutagenic call (Test System: AMES SALMONELLA TYPHIMURIUM, Strain/Indicator: TA1538, Metabolic Activation: NONE, Method: STANDARD PLATE): inactive; negative
- mutagenic call (Test System: AMES SALMONELLA TYPHIMURIUM, Strain/Indicator: TA1538, Metabolic Activation: RAT, LIVER, S-9, Method: STANDARD PLATE): inactive; negative; toxicity at 1000 ug/plate

Compound: Nc1snc2c(Cl)cc(Cl)cc12
- mutagenic call [4]: inactive; negative
- mutagenic call [1]: inactive; negative
- mutagenic call [2]: inactive; negative
- mutagenic call [3]: active; positive
- mutagenic call [5]: inactive; negative
- mutagenic call (Test System: AMES SALMONELLA TYPHIMURIUM, Strain/Indicator: TA1535, Metabolic Activation: S-9, Method: STANDARD PLATE): inactive; negative
- mutagenic call [6]: inactive; negative
- mutagenic call (Test System: AMES SALMONELLA TYPHIMURIUM, Strain/Indicator: TA1537, Metabolic Activation: S-9, Method: STANDARD PLATE): active; positive

Compound: CN(C)CCNC(=O)c1ccc2c(N)c3ccccc3nc2c1
- mutagenic call [6]: inactive; negative

Compound: COc1ccc(CCl)cc1
- mutagenic call [2]: inactive; negative

Compound: CC1=C(Cl)C(=O)NC1=O
- mutagenic call [2]: inactive; negative

Compound: Cc1ccc(NCC2(O)OC[C@@H](O)[C@@H](O)[C@@H]2O)cc1 (some centres undefined)
- mutagenic call (Test System: AMES SALMONELLA TYPHIMURIUM, Strain/Indicator: TA100, Metabolic Activation: NONE, Method: LIQUID INCUBATION): inactive; negative

Compound: Nc1c(S(=O)(=O)O)cc(Nc2cccc(S(=O)(=O)CCOS(=O)(=O)O)c2)c2c1C(=O)c1ccccc1C2=O
- mutagenic call (Test System: MOUSE LYMPHOMA, Strain/Indicator: L5178Y (TK+/TK-), Metabolic Activation: NONE, Method: SUSPENSION/PLATE): active; positive

Reference: PubChem BioAssay AID1259407 (Chemical Carcinogenesis Research Information System (CCRIS), 2018)
